What was measured:
Assay type in all cases: cell-based, human
[1] = test system: hematopoietic stem cells (CD34+); experiment: Viability of hematopoietic stem cells from healthy donors (MTT); conditions: 0-50 μM, 18 hours
Method: (§1) In vitro studies were carried out using six different human MM cell lines, U266, RPMI8226, MM1S, MM1R, U266-LR7, and RPMI-LR5. For ex vivo assays, human primary cells from healthy donors and MM patients were used (Table 1). Human MM cell lines U266, RPMI8226, and MM1.S were acquired from ATCC and lines U266-LR7, RPMI-LR5, and MM1.R were kindly provided by Dr. Enrique Ocio (Hospital Universitario de Salamanca, Spain). The primary cells were obtained from bone marrow (BM) aspirates or peripheral blood (PB) samples, and the peripheral blood mononuclear cells (PBMCs) were isolated by Ficoll-Hypaque centrifugation and washed twice in phosphate buffered saline (PBS) containing 1% BSA. Hematopoietic stem cells and B and T lymphocytes were isolated from healthy PB donors by positive immunomagnetic separation using human MACS CD34+, CD19+, and CD3+ microbeads, respectively. MM plasma cells were obtained from the bone marrow (BM) of patients with an infiltration of cells of more than 30% (Table 1). […]
The MM cell lines and primary cells were exposed to different doses of indazole compounds, and viability was evaluated at 18, 48, and 72 hours. […] Cell viability was determined using the MTT assay Cell Counting Kit-8 (Dojindo, Kumamoto, Japan) according to the manufacturer's instructions.

KG-1a = experiment: WST-1 cell viability assay, KG-1a; conditions: 18 hours
Method: (§2) The cell lines of acute myeloid leukemia KG-1a and HL60 (American Type Culture Collection) were cultured in IMDM medium supplemented with 2 mM of L-glutamine, […] of penicillin, 100 μg/ml of streptomycin, and 15% fetal bovine serum (FBS).
(§3) The cell lines and primary cells were cultured in 96-well plates (5×10e5 cells per well) with the addition of the indicated concentrations of WIN 55,212-2 or PGN cannabinoids in DMSO or with the solvent only in triplicate at 18, 48, and 72 hours. Caspase inhibitor Z-VAD (OMe)-FMK or the CB2 receptor antagonist PGN-8, -37, and -70, together with the cannabinoid WIN-55,212-2, were also added. Cell viability was determined by means of the WST-1 assay [2-(4-iodophenyl)-3-(4-nitrophenyl)-5-(2,4-disulfophenyl)-2H-tetrazolium] according to the manufacturer's instructions (Dojindo Molecular Technologies). Optical densities were measured at 450 nm using a Multiskan™ Go Microplate plate reader (Thermo Fisher Scientific, Waltham, Mass., USA).
(§4) Now it will be analyzed whether the exposure to cannabinoids had any effect on the viability of the tumor cells in vitro. To that end, the human AML U937, HL60, KG-1a, NB-4, MOLM-13, and KG-1 cell lines were cultured in serum-free medium and exposed to various concentrations of WIN-55,212-2 (range of 100 nM to 50 μM) for 18 hours, and cell viability was measured by means of WST-1 assays (Table 1). […]

U266 = experiment: Mitochondrial transmembrane potential analysis (TMRE); conditions: U266, 50 μM, from 15 minutes
Method: Cell lines U266 were exposed to 50 μM of WIN-55 for 15, 30, 45, and 60 minutes. The loss of mitochondrial membrane potential (Aym) was calculated using TRME (tetramethylrhodamine-ethyl-ester-perchlorate) according to the manufacturer's instructions and CCCP (2-[2-(3-chlorophenyl)hydrazinylidene] propanedinitrile) was used as a control to induce the loss of Aym.

RPMI = experiment: Cell viability by flow cytometry (annexin V/7-AAD), RPMI; conditions: 18 hours
Method: (§5) The cell viability of the MM cell lines and primary cells from healthy PB donors was also evaluated by flow cytometry using 7-AAD/Annexin V. Patient bone marrow (BM) cells were analyzed using 7-AAD with a combination of monoclonal antibodies against myeloma-associated antigens (anti-CD56-APC, anti-CD45-Pacific Blue, and anti-CD38-APC-H7 [BD Biosciences]) and antibodies for distinguishing the granulomonocytic population (anti-CD64-FITC) and lymphocytic population (anti-CD45-Pacific Blue). The cells were acquired by means of FACSCanto II flow cytometer (BD Biosciences) and analyzed using Infinicyt™ Software (Cytognos, Spain).

RPMI-LR5 = experiment: MTT cell viability assay, myeloma cell line RPMI-LR5; conditions: RPMI-LRS, MTT, 18 hours, doses 0-50 μM; read-out: IC50, cell viability
Method: In vitro studies were carried out using six different human MM cell lines, U266, RPMI8226, MM1S, MM1R, U266-LR7, and RPMI-LR5. For ex vivo assays, human primary cells from healthy donors and MM patients were used (Table 1). Human MM cell lines U266, RPMI8226, and MM1.S were acquired from ATCC and lines U266-LR7, RPMI-LR5, and MM1.R were kindly provided by Dr. Enrique Ocio (Hospital Universitario de Salamanca, Spain). The primary cells were obtained from bone marrow (BM) aspirates or peripheral blood (PB) samples, and the peripheral blood mononuclear cells (PBMCs) were isolated by Ficoll-Hypaque centrifugation and washed twice in phosphate buffered saline (PBS) containing 1% BSA. Hematopoietic stem cells and B and T lymphocytes were isolated from healthy PB donors by positive immunomagnetic separation using human MACS CD34+, CD19+, and CD3+ microbeads, respectively. MM plasma cells were obtained from the bone marrow (BM) of patients with an infiltration of cells of more than 30% (Table 1). The MM plasma cells were identified using CD138+, and were then distinguished from the other cell populations by flow cytometry using a suitable combination of antibodies: anti-human CD64-FITC, CD34-PE, CD56-APC, CD38-APC-H7, and CD45-Pacific Blue antibodies (BD Biosciences, San Jose, Calif.). All the cell lines were cultured in RPMI-1640 supplemented with 10% fetal bovine serum (FBS) and 1% penicillin/streptomycin, as recommended by the supplier. For human primary cells, the concentration of FBS was up to 20%.
The MM cell lines and primary cells were exposed to different doses of indazole compounds, and viability was evaluated at 18, 48, and 72 hours. Pretreatments with the ceramide synthesis inhibitor (FB1), pan-caspase (ZVAD-FMK), and CB antagonists (PGN-8, PGN-37, and PGN-70) were performed for 30 minutes, and then the cells were incubated with indazole compound WIN-55 up to 18 hours. Cell viability was determined using the MTT assay Cell Counting Kit-8 (Dojindo, Kumamoto, Japan) according to the manufacturer's instructions.

NB-4 = experiment: WST-1 cell viability assay, NB-4; conditions: NB-4, 18 hours
Method: U937, NB-4, KG-1, and MOLM-13 (DMSZ, Braunschweig, Germany) were cultured in complete RPMI 1640 medium (with 2 mM of L-glutamine, 100 mg of penicillin, 100 μg/ml of streptomycin, and with 10% FBS), supplemented with 10 mM HEPES, 1×NaPuvuvato, and 1× non-essential amino acids.
as §3
Now it will be analyzed whether the exposure to cannabinoids had any effect on the viability of the tumor cells in vitro. […]

HL60 [2] = experiment: Western blot and immunocytofluorescence in HL60 cells
Source text: The detailed methodology for analyzing mitochondrial membrane potential (APm), Western Blot analysis, and immunocytofluorescence analysis has been described elsewhere 29

HL60 [3] = experiment: WST-1 cell viability assay, HL60; conditions: HL60, 18 hours
Method: as §2, §3, §4

[4] = test system: granulomonocytes (CD64+) and lymphocytes (CD45+); experiment: Ex vivo viability of normal cell subpopulations of patient bone marrow by flow cytometry
Method: as §1, with “BSA.” for “BSA. Hematopoietic stem cells and B and T lymphocytes were isolated from healthy PB donors by positive immunomagnetic separation using human MACS CD34+, CD19+, and CD3+ microbeads, respectively. MM plasma cells were obtained from the bone marrow (BM) of patients with an infiltration of cells of more than 30% (Table 1).”
as §5

## CS(=O)(=O)O.Cc1c(C(=O)c2cccc3ccccc23)c2cccc3c2n1[C@H](CN1CCOCC1)CO3 [WIN-55, (R)-(+)-[2,3-dihydro-5-methyl-3-(4-morpholinomethyl)-pyrrolo[1,2,3]-1,4-benzoxazin-6-yl]-1-naphthalenylmethanone mesylate]
[1]
  hematopoietic stem cell viability: not affected
KG-1a
  % viable cells at 50 μM: 42.1%
  IC50: 22 µM
U266
  mitochondrial membrane potential: early loss of mitochondrial membrane potential
RPMI
  IC50: 12.7 µM
RPMI-LR5
  IC50: 16.1 µM
NB-4
  % viable cells at 50 μM: 49.1%
  IC50: 25.1 µM
HL60 [2]; HL60
  expression of Bax (immunocytofluorescence): considerable increase in Bax
HL60 [2]; HL60, 50 μM, 2, 6, 18 and 24 hours
  caspase activation pattern (Western blot): activation of various caspases
HL60 [3]
  % viable cells at 50 μM: 28.4%
  IC50: 19.4 µM
[4]; granulomonocytes (CD64+) and lymphocytes (CD45+), 0-50 μM, 18 hours
  cell viability of normal cell subpopulations from patient bone marrow: barely affected
[4]; highest dose tested, 50 μM
  effect on the lymphocyte population (CD45+): induced an antiproliferative effect

Reference: patent US20200281897A1, “INDAZOLE DERIVATIVES FOR CANCER TREATMENT” (Servicio Andaluz de Salud, priority 2016, published 2020)
